Target: Neuraminidase (Influenza A virus (A/Memphis/1/1971(H3N2)), UniProt P03471)
Test: Inhibition of influenza A virus H3N2 clinical isolate neuraminidase using NA-Fluor MUNANA as substrate preincubated for 20 to 30 mins followed by substrate addition and measured for 60 mins by fluorescence assay

Sequence of Neuraminidase (Influenza A virus (A/Memphis/1/1971(H3N2)), UniProt P03471) (P03471 whole entry): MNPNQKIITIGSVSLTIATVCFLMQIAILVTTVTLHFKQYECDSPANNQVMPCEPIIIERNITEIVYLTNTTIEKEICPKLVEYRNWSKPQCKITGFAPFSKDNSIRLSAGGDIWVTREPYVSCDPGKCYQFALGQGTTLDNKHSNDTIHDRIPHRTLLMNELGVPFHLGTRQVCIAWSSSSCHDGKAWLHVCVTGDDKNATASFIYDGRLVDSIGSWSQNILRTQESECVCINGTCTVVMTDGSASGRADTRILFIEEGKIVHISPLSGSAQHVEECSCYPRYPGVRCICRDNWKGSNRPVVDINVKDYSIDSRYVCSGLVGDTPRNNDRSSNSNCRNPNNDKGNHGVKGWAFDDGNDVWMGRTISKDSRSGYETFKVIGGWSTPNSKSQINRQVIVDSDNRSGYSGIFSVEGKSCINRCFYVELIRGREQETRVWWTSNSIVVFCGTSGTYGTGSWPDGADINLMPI

CCC(CC)O[C@@H]1C=C(C(=O)O)C[C@H](NCc2noc(-c3ccco3)n2)[C@H]1NC(C)=O
IC50: 1.92 nM

CCC(CC)O[C@@H]1C=C(C(=O)O)C[C@H](NCc2ccc(-c3c(C)noc3C)o2)[C@H]1NC(C)=O
IC50: 1.63 nM
